The experiment concerns MDA-MB-468 breast. Briefly: growth of human tumour cells (NCI), 48 h.

Values joined by “and” are separate entries in the source; they are usually repeats but may differ in a detail not shown here. Equal values may be shown once.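 These data come from cells grown in 96-well plates and exposed to compound for 48 hours at five concentrations. GI50: concentration for 50% inhibition of growth. TGI denotes the concentration required for complete inhibition of growth.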 Where a SMILES comes first, the peptide text is derived from it. [ ]: non-standard residue; d: D form. The star is where a group is joined. ξ: configuration not given here. dIva = CC[C@@](C)(N)C(=O)O; Aib = CC(C)(N)C(=O)O; ξP = O=C(O)C1CCCN1; βAla = NCCC(=O)O; X5 = OCN*

`COc1cc(OC)c2c(c1Cl)O[C@]1(C2=O)C(OCc2ccccc2)=CC(=O)C[C@H]1C`: the GI50 is 741 nM and the TGI came to 47500 nM.

Turning to `CCC(=O)OCN1C(=O)C=CC1=O`, the GI50 is 14100 nM and the TGI is 32400 nM. `CC1(C)N=C(N)N=C(N)N1c1ccc(CCC(=O)Nc2cccc(S(=O)(=O)F)c2)cc1`: the GI50 is 1310 nM and the TGI was > 100000 nM.

On to `COc1ccc(-c2cc3c(N)ncnc3o2)cc1`, for which the GI50 is > 25000 nM and the TGI was > 25000 nM. In the case of `CCC(=O)Oc1ccc(/C=N/NC(N)=S)nc1`, the GI50 was 1970 nM and the TGI came out at 7220 nM. On to `CCCCCCCCCCCCCCCC(N)c1ccccc1` (stereo unspecified), for which the GI50 was 1580 nM and the TGI came to 3140 nM. In the case of `CC(CNc1nc(Nc2ccc(Cl)c(Cl)c2)nc(C(Cl)(Cl)Cl)n1)N(C)C` (stereo unspecified), the GI50 is 1470 nM and the TGI turned out to be 2850 nM.

As for `COC(=O)CCc1c(/C=C2\N=C(c3ccc[nH]3)C=C2OC)[nH]c(C)c1C(=O)OCc1ccccc1`, the GI50 is 842 nM and the TGI was found to be 4400 nM.

In the case of `CNCC1CCn2c(c(C3=C(c4cn(C)c5ccccc45)C(=O)NC3=O)c3ccccc32)C1` (stereo unspecified), the GI50 is 2620 nM and the TGI stood at 6580 nM. On to `C=CC(=O)Nc1cccc(Nc2nc(Nc3ccc(N4CCN(C(C)=O)CC4)cc3OC)ncc2C(F)(F)F)c1`, for which the GI50 was 288 nM and 266 nM; the TGI is 1980 nM and 1620 nM.

For the molecule `CC(=O)N1c2ccc(-c3ccc(C(=O)O)cc3)cc2[C@H](Nc2ccc(Cl)cc2)C[C@@H]1C`, the GI50 was 131 nM and the TGI amounted to 17300 nM. Turning to `CN1CCN(Cc2ccc(NC(=O)c3[nH]ncc3Nc3cc(OC4CCCC4)ncn3)cc2)CC1`, the GI50 was 1980 nM and the TGI worked out at 4770 nM.

As to `Nc1nc(N)c(-c2ccc(Cl)cc2)c(/C=C/c2ccc([N+](=O)[O-])cc2)n1`, the GI50 was 3020 nM and the TGI was > 100000 nM. `CC[C@@](C)(NC(=O)[C@H](C)NC(=O)CCNC(=O)C(C)(C)NC(=O)[C@H](C)NC(=O)[C@@H]1CCCN1C(=O)[C@@](C)(CC)NC(=O)[C@H](Cc1ccccc1)NC(=O)C1CCCN1C(=O)C(C)(C)NC(=O)C1CCCN1C(=O)C(C)(C)NC(C)=O)C(=O)NCCC(=O)N[C@@H](CC(C)C)C(=O)NC(C)(C)C(=O)NCCC(=O)N[C@@H](CC(C)C)C(=O)NC(C)(C)C(=O)NC(C)(C)C(=O)N[C@@H](CC(C)C)C(=O)NCCC(=O)NCO` (stereo partly specified) (Ac-[Aib][ξP][Aib][ξP]F[dIva]PA[Aib][βAla]A[dIva][βAla]L[Aib][βAla]L[Aib][Aib]L[βAla]-X5): the GI50 is 52.8 nM and the TGI was 163 nM. For the molecule `O=S1(=O)C=C(c2ccccc2)C(c2ccccc2)=C1`, the GI50 is 1140 nM and the TGI was found to be 2460 nM. For `COc1ccc(-c2c(C#N)cnc(N)c2-c2nc3cc(C)c(C)cc3[nH]2)cc1`, the GI50 is 6220 nM and the TGI was found to be 23100 nM. The matching figures for `O=C1/C(=C/c2cccc(F)c2)CN(C(=O)C(Cl)Cl)C/C1=C\c1cccc(F)c1`: 207 nM and 529 nM.

Regarding `NC(N)=N/N=C/c1ccc(Br)cc1`, the GI50 is 1500 nM and the TGI came out at 4810 nM. `NC(N)=NC(N)=NCc1ccco1`: the GI50 was 158000 nM and 36800 nM; the TGI was 500000 nM.

Regarding `CN(C)CCNC(=O)c1ccc(-c2nc3ccc4[nH]ncc4c3c3c2COCC3)cc1`, the GI50 was 169 nM and the TGI was determined as 360 nM. As to `CC(=O)Nc1nc(C)c(-c2cc3c(c(S(C)(=O)=O)c2)C(=O)N([C@@H](C)C2CC2)C3)s1`, the GI50 was 31600 nM and the TGI was > 100000 nM. As to `C[C@H](c1ccc(Cl)cc1[N+](=O)[O-])N1C(=O)c2cc(I)ccc2NC(=O)[C@H]1c1ccc(Cl)cc1`, the GI50 was 16600 nM and the TGI was > 100000 nM.

Regarding `COc1ccc2c(c1)NC(=O)CN2c1nc(C)nc2ccccc12`, the GI50 was 0.415 nM. In the case of `NS(=O)(=O)c1ccc(N=Nc2c(=O)[nH]c3ccc4[nH]cccc4c23)cc1`, the GI50 was 73.3 nM and the TGI was 257 nM. Taken in the same sequence, the figures for `CN1CCN(Cc2ccc(NC(=O)c3cncc(C#Cc4ncc5ccccn45)c3)cc2C(F)(F)F)CC1` were 2780 nM and 7900 nM. With `CN1C(=O)C(C)(C)Oc2c(-c3cn(C)c(=O)c4[nH]ccc34)cc(S(C)(=O)=O)cc21`, the GI50 was 551 nM and the TGI came to 3700 nM. For the molecule `COC(=O)[C@]1(C)CC[C@]2(C)CC[C@]3(C)C(=CC(=O)[C@@H]4[C@@]5(C)CCC(=O)NC(C)(C)[C@@H]5CC[C@]43C)[C@@H]2C1`, the GI50 was 18300 nM and the TGI came out at 64200 nM. For the molecule `COc1ccc(/C=C/C(=O)/C=C(/C=C/c2ccc(OC)c(OC)c2OC)OB(F)F)c(OC)c1OC`, the GI50 is 2570 nM and the TGI was determined as 9650 nM. For the molecule `COc1ccccc1/C=C/C=N/NC1=NC2C(S1)N(C)C(=O)N2c1ccccc1` (stereo unspecified), the GI50 was 428 nM and the TGI was 31000 nM. As to `O=C1C=C(OCC=C(Cl)Cl)C(=O)c2ccccc21`, the GI50 was 1050 nM and the TGI is 3600 nM. For `COc1cc[nH]c1/C=C1\C(=O)Nc2ccc([N+](=O)[O-])c(N3CC[C@@H](O)C3)c21`, the GI50 is 352 nM and the TGI turned out to be 995 nM.

Values taken from PubChem BioAssay (NCI).
